Values of other authors in Sander's compilation of Henry's law constants (doi:10.1021/ci0256485).

Assay: Henry solubility constant Hcp at 298.15 K (mol/(m3 Pa))
Settings: reference: Delgado and Alderete (2003); cited value

Q: With `CCNc1nc(NC(C)C)nc(SC)n1` [ametryn] as the compound, how does the “Henry solubility constant Hcp” value read?
A: 4100

Q: With `Cc1nnc(-c2ccccc2)c(=O)n1N` [metamitron] as the compound, how does the “Henry solubility constant Hcp” value read?
A: 2.2e+06
